This is an account of results in ChEMBL document CHEMBL1201862, “PubChem BioAssay data set” (2004).

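Where inhibition never reached the appropriate level, the endpoint shown equals the highest concentration tested. Otherwise, values were interpolated linearly from a five-concentration, 48-hour dose response in 96-well plates. GI50: concentration for 50% inhibition of growth.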 Active and inactive are the calls of the source. Rule as the data show it: active = GI50 up to about 1.1 µM and inactive = higher. Some results are limits rather than exact numbers.

Test systems include HT-29; K562; UACC-62; NCI/ADR-RES; NCI-H226; COLO 205; MDA-MB-435; HCT-15; UACC-257; KM12; ACHN; IGROV-1; HOP-62; DU-145; HCT-116; NCI-H23; SF-268; SK-MEL-28; HL-60; NCI-H522.
Holding throughout (assay): NCI tumour cell line growth inhibition, 48 h

For the compound `CCC(C=O)P1(=O)OC(C)(C)CN1C(C)(C)C` (centres undefined), the GI50 is > 100 µM (inactive) in the assay on HT-29; 77.8 µM (inactive) with K562; > 100 µM (inactive) with UACC-62; 92.3 µM (inactive) in the assay on NCI/ADR-RES; > 100 µM (inactive) with NCI-H226; > 100 µM (inactive) in the assay on COLO 205. Further, the GI50 with MDA-MB-435 is 99.5 µM (inactive); in the assay with HCT-15, 99.8 µM; in the assay on UACC-257, > 100 µM (inactive); in the assay on KM12, 24.4 µM (inactive); in the assay on ACHN, > 100 µM (inactive); with IGROV-1, > 100 µM (inactive). The GI50 in the assay with HOP-62 was 62.5 µM (inactive); in the assay with DU-145, > 100 µM (inactive); in the assay with HCT-116, 59.8 µM (inactive); with NCI-H23, > 100 µM (inactive); in the assay on SF-268 it was 88.3 µM (inactive).
For `CC(C)CCCC(C)[C@H]1CC[C@H]2NCCCC[C@]12C` (some centres undefined), the GI50 is 2.34 µM (inactive) in the assay with HT-29; 2.01 µM (inactive) in the assay with K562; 2.01 µM (inactive) with UACC-62; 6.71 µM (inactive) in the assay with NCI/ADR-RES; 9.14 µM (inactive) with NCI-H226; 1.73 µM (inactive) in the assay on COLO 205. The GI50 with MDA-MB-435 is 2.01 µM (inactive); in the assay with SK-MEL-28 it was 2.37 µM (inactive); with HCT-15 it was 2.43 µM; in the assay with UACC-257 it was 3.83 µM (inactive); with KM12, 2.68 µM (inactive); with ACHN, 2.07 µM (inactive). Besides, the GI50 was 6.19 µM (inactive) with IGROV-1; 1.93 µM (inactive) in the assay on HL-60; 9.08 µM (inactive) with HOP-62; 5.56 µM (inactive) in the assay on DU-145; 3.03 µM (inactive) with HCT-116; 8.69 µM (inactive) with NCI-H23. The GI50 in the assay with SF-268 is 13.1 µM (inactive).
Regarding `O=c1oc2c(Cl)cc(Cl)cc2cc1C1=CSC2=NCCN12`, the GI50 in the assay on HT-29 is 61.2 µM (inactive); in the assay on K562, 34.4 µM (inactive); in the assay with UACC-62, 51.9 µM (inactive); in the assay with NCI/ADR-RES, 79.6 µM (inactive); in the assay on COLO 205 it was > 100 µM (inactive); with MDA-MB-435, 32 µM (inactive). In addition, the GI50 is 47.1 µM (inactive) in the assay on SK-MEL-28; 44.7 µM in the assay on HCT-15; > 100 µM (inactive) with UACC-257; 57.8 µM (inactive) in the assay with KM12; 49.7 µM (inactive) with ACHN; 48.8 µM (inactive) with IGROV-1. For the same compound, the GI50 is 30.3 µM (inactive) in the assay on HL-60; 38.8 µM (inactive) in the assay with HOP-62; 40.1 µM (inactive) in the assay with DU-145; 31 µM (inactive) in the assay with HCT-116; 46 µM (inactive) with NCI-H23.
`COc1ccc(CSc2ccccc2Cn2cccc2)cc1OC`: the GI50 was 99.8 µM (inactive) in the assay on HT-29; 27 µM (inactive) in the assay on K562; 71.6 µM (inactive) in the assay on UACC-62; 34.3 µM (inactive) in the assay with NCI/ADR-RES; > 100 µM (inactive) in the assay on NCI-H226; > 100 µM (inactive) in the assay on COLO 205. Besides, the GI50 is > 100 µM (inactive) in the assay with MDA-MB-435; > 100 µM (inactive) in the assay with SK-MEL-28; 87.9 µM in the assay on HCT-15; 27.8 µM (inactive) in the assay with UACC-257; 28.3 µM (inactive) in the assay with KM12; 10.4 µM (inactive) in the assay on ACHN. Moreover, the GI50 in the assay with IGROV-1 is > 100 µM (inactive); with HL-60, 20.7 µM (inactive); in the assay on HOP-62 it was > 100 µM (inactive); in the assay with DU-145 it was > 100 µM (inactive); in the assay on HCT-116, 89.1 µM (inactive); in the assay on NCI-H23, 10.9 µM (inactive). The GI50 in the assay on SF-268 is > 100 µM (inactive).
Turning to `O=[N+]([O-])C(/C(Cl)=C(/Cl)N1CCOCC1)=C1\Nc2ccccc2O1`, the GI50 was > 100 µM (inactive) with HT-29; > 100 µM (inactive) in the assay on K562; 96.2 µM (inactive) with UACC-62; 83.2 µM (inactive) in the assay with NCI/ADR-RES; > 100 µM (inactive) with NCI-H226; > 100 µM (inactive) in the assay with COLO 205. Further, the GI50 is > 100 µM (inactive) with MDA-MB-435; > 100 µM (inactive) with SK-MEL-28; over 100 µM in the assay with HCT-15; 15 µM (inactive) in the assay on UACC-257; > 100 µM (inactive) with KM12; > 100 µM (inactive) in the assay with ACHN. For the same compound, the GI50 is > 100 µM (inactive) with HOP-62; 70.3 µM (inactive) in the assay on DU-145; > 100 µM (inactive) in the assay on HCT-116; > 100 µM (inactive) in the assay with NCI-H23; 28.9 µM (inactive) in the assay on SF-268.
On to `Cc1c(C#N)c2nnn(-c3ccccc3)c(=O)n2c1-c1ccccc1`, for which the GI50 in the assay with K562 was 0.236 µM (active); in the assay on UACC-62, 4.79 µM (inactive); in the assay with NCI/ADR-RES, 1.12 µM (active); with NCI-H226, 2.84 µM (inactive); in the assay on COLO 205, 0.49 µM (active); in the assay with MDA-MB-435, 0.307 µM (active). Moreover, the GI50 in the assay on HCT-15 is 1.85 µM; in the assay with UACC-257 it was 25.4 µM (inactive); in the assay on KM12, 0.839 µM (active); in the assay on ACHN, 8.97 µM (inactive); in the assay with IGROV-1 it was 1.48 µM (inactive); in the assay on HL-60 it was 0.376 µM (active). In addition, the GI50 in the assay with HOP-62 was 4.48 µM (inactive); with DU-145, 1.73 µM (inactive); in the assay on HCT-116 it was 0.619 µM (active); in the assay on NCI-H23, 5.43 µM (inactive); in the assay with SF-268, 7.85 µM (inactive).
As to `Nc1ccccc1C(=O)CCC1C(=O)NC(=S)NC1=O`, the GI50 in the assay on HT-29, with K562, with UACC-62, in the assay with NCI/ADR-RES, with NCI-H226 and in the assay with COLO 205 was > 100 µM (inactive) in each case. Further, the GI50 was > 100 µM (inactive) with SK-MEL-28; over 100 µM with HCT-15; > 100 µM (inactive) in the assay with UACC-257; > 100 µM (inactive) with KM12; > 100 µM (inactive) with ACHN; > 100 µM (inactive) in the assay on IGROV-1. Besides, the GI50 in the assay on HL-60, with HOP-62, in the assay with DU-145, with HCT-116, in the assay with NCI-H23 and in the assay on NCI-H522 was > 100 µM (inactive) in each case. In addition, the GI50 with SF-268 is > 100 µM (inactive).
Consider `COc1cc(C2c3cc4c(cc3[C@@H](Nc3ccc5c(c3)OCCO5)C3COC(=O)[C@H]23)OCO4)cc(OC)c1O` (some centres undefined), for which the GI50 in the assay on HT-29 was 0.555 µM (active); in the assay on K562, 0.413 µM (active); with UACC-62 it was 0.257 µM (active); in the assay on NCI/ADR-RES, 1.07 µM (active); with NCI-H226, 0.295 µM (active); with COLO 205, 0.918 µM (active). In addition, the GI50 with SK-MEL-28 was 2.05 µM (inactive); with HCT-15, 1.25 µM; with UACC-257 it was 2.57 µM (inactive); in the assay on KM12, 1.85 µM (inactive); with ACHN, 0.585 µM (active); in the assay with IGROV-1, 0.906 µM (active). The GI50 with HL-60 was 0.105 µM (active); with HOP-62 it was 0.22 µM (active); in the assay with DU-145 it was 0.743 µM (active); in the assay on HCT-116 it was 0.194 µM (active); with NCI-H23, 0.207 µM (active); with NCI-H522 it was 0.301 µM (active). Further, the GI50 in the assay on SF-268 is 0.771 µM (active).
